Assay results published in US20250186391A1, “ORAL COMPLEMENT FACTOR D INHIBITORS” (BioCryst Pharmaceuticals, Inc., priority 2019, published 2025).

Target: Factor D (Homo sapiens (Human), UniProt P00746)
Assay: Factor D esterolytic assay
Assay type: biochemical
Conditions: Z-Lys-SBzl substrate, 100 mM HEPES, 500 mM NaCl, pH 7.5, 10% DMSO; tested a minimum of three times; read-out: Measured Ki (IC50) Value for Compounds: IC50
Method in brief: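 Chromogenic thioesterase read-out: Z-Lys-SBzl (1.29 mM) hydrolysis by human Factor D, thiol detected with DTNB at 405 nm (690 nm background subtracted) for 600 s. Run in 100 mM HEPES, 500 mM NaCl, pH 7.5, 10% DMSO, substrate added immediately or after room-temperature preincubation. IC50 from percent inhibition versus enzyme alone, n≥3.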

Chain of Factor D (P00746 26-253): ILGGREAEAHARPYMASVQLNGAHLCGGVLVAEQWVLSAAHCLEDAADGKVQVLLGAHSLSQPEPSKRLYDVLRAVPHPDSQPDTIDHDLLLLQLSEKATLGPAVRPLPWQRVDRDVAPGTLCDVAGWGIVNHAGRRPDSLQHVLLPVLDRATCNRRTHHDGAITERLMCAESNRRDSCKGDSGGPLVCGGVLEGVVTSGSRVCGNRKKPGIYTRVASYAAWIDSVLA

SMILES	IC50
NCc1cc(F)cc(-c2ccc3occ(COc4ccccc4CC(=O)O)c3c2)c1 [Compound 40c, 2-(2-((5-(3-(aminomethyl)-5-fluorophenyl)benzofuran-3-yl)methoxy)phenyl)acetic acid]	< 1000 nM
CC(C)CNc1cc(-c2cccc(CN)c2)cc2c(COc3ccccc3CC(=O)O)coc12 [Compound 151d, 2-(2-((5-(3-(aminomethyl)phenyl)-7-(isobutylamino)benzofuran-3-yl)methoxy)phenyl)acetic acid]	< 1000 nM
NCc1cccc(-c2ccc3occ(COc4cc(CN)ccc4CC(=O)O)c3c2)c1 [Compound 156c, 2-(4-(aminomethyl)-2-((5-(3-(aminomethyl)phenyl)benzofuran-3-yl)methoxy)phenyl)acetic acid]	< 1000 nM
COc1ccc(CC(=O)O)c(OCc2c(C)oc3ccc(-c4cccc(CN)c4F)cc23)c1 [Compound 201b, 2-(2-((5-(3-(aminomethyl)-2-fluorophenyl)-2-methylbenzofuran-3-yl)methoxy)-4-methoxyphenyl)acetic acid]	< 1000 nM
NCc1cccc(-c2cc(COc3cccc(CC(=O)O)c3)cc3cc(COc4ccccc4CC(=O)O)oc23)c1 [Compound 16e, 2-(3-((7-(3-(aminomethyl)phenyl)-2-((2-(carboxymethyl)phenoxy)methyl)benzofuran-5-yl)methoxy)phenyl)acetic acid]	< 1000 nM
NCc1cccc(-c2cccc3cc(COc4ccccc4CC(=O)O)ccc23)c1 [Compound 41d, 2-(2-((5-(3-(aminomethyl)phenyl)naphthalen-2-yl)methoxy)phenyl)acetic acid]	> 10000 nM
COc1ccc(CC(=O)O)c(OCc2coc3ccc(-c4ccnc(CN)c4)cc23)c1 [Compound 68e, 2-(2-((5-(2-(aminomethyl)pyridin-4-yl)benzofuran-3-yl)methoxy)-4-methoxyphenyl)acetic acid]	< 1000 nM
CN(Cc1cc(-c2cccc(CN)c2)cc2c(COc3ccccc3CC(=O)O)coc12)C1CC1 [Compound 261e, 2-(2-((5-(3-(aminomethyl)phenyl)-7-((cyclopropyl(methyl)amino)methyl)benzofuran-3-yl)methoxy)phenyl)acetic acid]	< 1000 nM
NCc1cccc(-c2cc(C(=O)O)cc3cc(COc4ccccc4CC(=O)O)oc23)c1 [Compound 37b, 7-(3-(aminomethyl)phenyl)-2-((2-(carboxymethyl)phenoxy)methyl)benzofuran-5-carboxylic acid]	1000 to 10000 nM
Cc1nn(C)cc1-c1cc(-c2cccc(CN)c2)cc2c(COc3ccccc3CC(=O)O)coc12 [Compound 134c, 2-(2-((5-(3-(aminomethyl)phenyl)-7-(1,3-dimethyl-1H-pyrazol-4-yl)benzofuran-3-yl)methoxy)phenyl)acetic acid]	< 1000 nM
COc1cc(-c2cccc(CN)c2)cc2c(COc3cc(C(F)(F)F)ccc3CC(=O)O)coc12 [Compound 269c, 2-(2-((5-(3-(aminomethyl)phenyl)-7-methoxybenzofuran-3-yl)methoxy)-4-(trifluoromethyl)phenyl)acetic acid]	< 1000 nM
NCc1cc(-c2cc(COc3ccccc3CC(=O)O)cc3cc(COc4ccccc4CC(=O)O)oc23)ccn1 [Compound 27e, 2,2′-((((7-(2-(aminomethyl)pyridin-4-yl)benzofuran-2,5-diyl)bis(methylene))bis(oxy))bis(2,1-phenylene))diacetic acid]	< 1000 nM
COc1ccc(CC(=O)O)c(OCc2c3cc(-c4cccc(CN)c4)ccc3nn2C(C)C)c1 [Compound 255c, 2-(2-((5-(3-(aminomethyl)phenyl)-2-isopropyl-2H-indazol-3-yl)methoxy)-4-methoxyphenyl)acetic acid]	< 1000 nM
NCc1cccc(-c2cc(OCc3ccccn3)c3occ(COc4ccccc4CC(=O)O)c3c2)c1 [Compound 195f, 2-(2-((5-(3-(aminomethyl)phenyl)-7-(pyridin-2-ylmethoxy)benzofuran-3-yl)methoxy)phenyl)acetic acid]	< 1000 nM
